Laboratory results published in paper PMC7692329, “Inhibitory Effect of AB-PINACA, Indazole Carboxamide Synthetic Cannabinoid, on Human Major Drug-Metabolizing Enzymes and Transporters” (Pharmaceutics, 2020).
“Also recorded” adds a separate entry of the source. Read-outs that look alike come from different tables or passages of the source.

What was measured:
[1] = molecular target: UGT1A1 (Homo sapiens, UniProt P22309); experiment: UGT1A1 SN-38 glucuronidation inhibition in ultrapooled human liver microsomes
[2] = molecular target: UGT1A4 (Homo sapiens, UniProt P22310); experiment: UGT1A4 trifluoperazine N-glucuronidation inhibition in ultrapooled human liver microsomes
[3] = molecular target: UGT2B7 (Homo sapiens, UniProt P16662); experiment: UGT2B7 naloxone 3-β-D-glucuronidation inhibition in ultrapooled human liver microsomes
[4] = molecular target: T1, BCRP (Homo sapiens, UniProt Q9UNQ0); experiment: BCRP-mediated B to A transport of estrone-3-sulfate in LLC-PK1-BCRP cells; type: in vitro ADME
T1 construct: host or cells: LLC-PK1

[5] = molecular target: UGT1A9 (Homo sapiens, UniProt O60656); experiment: UGT1A9 mycophenolic acid glucuronidation inhibition in ultrapooled human liver microsomes
[6] = molecular target: CYP2C9 (Homo sapiens, UniProt P11712); experiment: CYP2C9 diclofenac 4'-hydroxylase inhibition in ultrapooled human liver microsomes; settings: for IC50: CYP2C9 diclofenac 4'-hydroxylase, ultrapooled human liver microsomes
[7] = test system: human cannabinoid receptor type 2 (hCB2); settings: cited from earlier work
[8] = molecular target: T2, OATP1B3 (Homo sapiens, UniProt Q9NPD5); experiment: OATP1B3-mediated estradiol-17β-D-glucuronide uptake in HEK293-OATP1B3 cells; type: in vitro ADME
T2 construct: host or cells: HEK293

[9] = molecular target: T3, OATP1B1 (Homo sapiens, UniProt Q9Y6L6); experiment: OATP1B1-mediated estrone-3-sulfate uptake in HEK293-OATP1B1 cells; type: in vitro ADME
T3 construct: host or cells: HEK293

[10] = molecular target: T4, OAT3 (Homo sapiens, UniProt Q8TCC7); experiment: OAT3-mediated estrone-3-sulfate uptake in HEK293-OAT3 cells; type: in vitro ADME
T4 construct: host or cells: HEK293
T4 sequence (Q8TCC7 1-542): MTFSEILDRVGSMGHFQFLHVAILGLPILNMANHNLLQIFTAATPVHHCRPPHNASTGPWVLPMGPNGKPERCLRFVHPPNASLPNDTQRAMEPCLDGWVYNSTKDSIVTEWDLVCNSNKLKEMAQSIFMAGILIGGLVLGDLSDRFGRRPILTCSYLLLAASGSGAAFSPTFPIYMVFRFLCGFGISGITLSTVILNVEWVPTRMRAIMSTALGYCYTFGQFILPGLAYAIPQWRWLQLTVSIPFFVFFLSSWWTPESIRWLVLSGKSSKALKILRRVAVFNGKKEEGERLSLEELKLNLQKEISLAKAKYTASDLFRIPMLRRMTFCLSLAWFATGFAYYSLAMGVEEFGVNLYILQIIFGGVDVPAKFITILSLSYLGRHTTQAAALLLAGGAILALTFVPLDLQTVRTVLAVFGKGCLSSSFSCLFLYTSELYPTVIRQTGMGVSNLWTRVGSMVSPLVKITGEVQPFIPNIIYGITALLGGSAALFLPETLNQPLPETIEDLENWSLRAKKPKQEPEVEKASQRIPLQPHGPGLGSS

[11] = molecular target: T5, OCT2 (Homo sapiens, UniProt O15244); experiment: OCT2-mediated methyl-4-phenylpyridinium uptake in HEK293-OCT2 cells; type: in vitro ADME
T5 construct: host or cells: HEK293

[12] = molecular target: T6, CYP2C8 (Homo sapiens, UniProt P10632); experiment: CYP2C8 amodiaquine N-deethylase inhibition in ultrapooled human liver microsomes; settings: for IC50: CYP2C8 amodiaquine N-deethylase, ultrapooled human liver microsomes
T6 sequence (P10632 1-490): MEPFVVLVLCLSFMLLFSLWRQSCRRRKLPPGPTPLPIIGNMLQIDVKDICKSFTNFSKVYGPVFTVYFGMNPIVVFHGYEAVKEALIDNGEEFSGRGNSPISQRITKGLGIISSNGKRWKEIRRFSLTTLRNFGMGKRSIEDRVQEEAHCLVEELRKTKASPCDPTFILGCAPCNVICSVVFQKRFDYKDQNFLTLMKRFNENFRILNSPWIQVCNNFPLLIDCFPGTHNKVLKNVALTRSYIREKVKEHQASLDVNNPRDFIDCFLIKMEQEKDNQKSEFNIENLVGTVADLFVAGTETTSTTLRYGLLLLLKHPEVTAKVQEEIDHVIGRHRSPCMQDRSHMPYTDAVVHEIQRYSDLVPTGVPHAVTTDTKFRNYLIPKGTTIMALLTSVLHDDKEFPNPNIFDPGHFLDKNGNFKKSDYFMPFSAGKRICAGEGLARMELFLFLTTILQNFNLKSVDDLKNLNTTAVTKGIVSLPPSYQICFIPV

[13] = molecular target: CYP2A6 (Homo sapiens, UniProt P11509); experiment: CYP2A6 coumarin 7-hydroxylase inhibition in ultrapooled human liver microsomes
[14] = molecular target: CYP2B6 (Homo sapiens, UniProt P20813); experiment: CYP2B6 bupropion hydroxylase inhibition in ultrapooled human liver microsomes
[15] = test system: human cannabinoid receptor type 1 (hCB1); settings: cited from earlier work
[16] = molecular target: UGT1A6 (Homo sapiens, UniProt P19224); experiment: UGT1A6 N-acetylserotonin glucuronidation inhibition in ultrapooled human liver microsomes
[17] = molecular target: T7, P-gp (Homo sapiens, UniProt P08183); experiment: P-gp-mediated B to A transport of digoxin in LLC-PK1-MDR1 cells; type: in vitro ADME
T7 construct: host or cells: LLC-PK1

[18] = molecular target: CYP1A2 (Homo sapiens, UniProt P05177); experiment: CYP1A2 phenacetin O-deethylase inhibition in ultrapooled human liver microsomes
[19] = child, chewing an AB-PINACA contaminated cigarette; cited from earlier work
[20] = molecular target: UGT1A3 (Homo sapiens, UniProt P35503); experiment: UGT1A3 chenodeoxycholic acid 24-acyl-β-glucuronidation inhibition in ultrapooled human liver microsomes
[21] = 25 of 58 cases; dose regimen not specified; cited from earlier work
[22] = IC50 With NADPH Preincubation, 30-min preincubation with NADPH
[23] = IC50 Without NADPH Preincubation, without NADPH preincubation

Chain of CYP2C9 (P11712 whole entry): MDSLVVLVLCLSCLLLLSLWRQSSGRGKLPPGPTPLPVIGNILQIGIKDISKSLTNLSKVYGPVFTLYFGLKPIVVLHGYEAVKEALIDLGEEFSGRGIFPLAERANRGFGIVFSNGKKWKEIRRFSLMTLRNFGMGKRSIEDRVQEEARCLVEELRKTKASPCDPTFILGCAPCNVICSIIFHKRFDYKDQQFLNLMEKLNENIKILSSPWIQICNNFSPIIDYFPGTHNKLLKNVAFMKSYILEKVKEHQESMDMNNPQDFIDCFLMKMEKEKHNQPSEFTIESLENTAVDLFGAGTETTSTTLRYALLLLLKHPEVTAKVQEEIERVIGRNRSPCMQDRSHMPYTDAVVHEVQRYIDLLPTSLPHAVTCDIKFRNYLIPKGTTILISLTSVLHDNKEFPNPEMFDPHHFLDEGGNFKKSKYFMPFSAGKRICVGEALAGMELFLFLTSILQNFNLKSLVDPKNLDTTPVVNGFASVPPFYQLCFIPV
Chain of CYP2B6 (P20813 whole entry): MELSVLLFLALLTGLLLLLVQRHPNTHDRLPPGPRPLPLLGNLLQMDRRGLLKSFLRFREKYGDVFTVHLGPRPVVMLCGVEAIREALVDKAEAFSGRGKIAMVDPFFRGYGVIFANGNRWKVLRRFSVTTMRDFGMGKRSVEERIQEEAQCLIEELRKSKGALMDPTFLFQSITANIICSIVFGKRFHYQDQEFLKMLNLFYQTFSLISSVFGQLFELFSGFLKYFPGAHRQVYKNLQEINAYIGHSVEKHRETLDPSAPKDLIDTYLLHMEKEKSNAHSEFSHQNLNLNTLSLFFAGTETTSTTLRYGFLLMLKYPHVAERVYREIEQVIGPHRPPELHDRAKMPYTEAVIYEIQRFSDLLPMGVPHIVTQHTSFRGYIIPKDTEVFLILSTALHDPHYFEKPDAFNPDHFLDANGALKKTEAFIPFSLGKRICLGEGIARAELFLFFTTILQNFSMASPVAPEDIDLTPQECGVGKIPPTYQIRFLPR
Chain of CYP1A2 (P05177 whole entry): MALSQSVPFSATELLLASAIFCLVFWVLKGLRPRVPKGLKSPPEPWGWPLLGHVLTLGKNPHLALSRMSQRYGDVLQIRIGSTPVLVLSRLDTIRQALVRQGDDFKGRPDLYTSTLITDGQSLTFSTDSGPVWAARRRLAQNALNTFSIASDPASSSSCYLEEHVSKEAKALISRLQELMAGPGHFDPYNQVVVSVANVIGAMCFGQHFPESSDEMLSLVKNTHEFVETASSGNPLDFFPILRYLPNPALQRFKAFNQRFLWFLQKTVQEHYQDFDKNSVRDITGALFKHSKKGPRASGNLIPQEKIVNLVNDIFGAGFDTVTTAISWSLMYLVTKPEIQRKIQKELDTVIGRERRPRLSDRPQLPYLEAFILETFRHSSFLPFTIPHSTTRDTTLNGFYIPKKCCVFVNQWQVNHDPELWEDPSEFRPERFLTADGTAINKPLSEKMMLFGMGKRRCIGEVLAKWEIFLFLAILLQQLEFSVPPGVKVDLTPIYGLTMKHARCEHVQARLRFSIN
Chain of CYP2A6 (P11509 whole entry): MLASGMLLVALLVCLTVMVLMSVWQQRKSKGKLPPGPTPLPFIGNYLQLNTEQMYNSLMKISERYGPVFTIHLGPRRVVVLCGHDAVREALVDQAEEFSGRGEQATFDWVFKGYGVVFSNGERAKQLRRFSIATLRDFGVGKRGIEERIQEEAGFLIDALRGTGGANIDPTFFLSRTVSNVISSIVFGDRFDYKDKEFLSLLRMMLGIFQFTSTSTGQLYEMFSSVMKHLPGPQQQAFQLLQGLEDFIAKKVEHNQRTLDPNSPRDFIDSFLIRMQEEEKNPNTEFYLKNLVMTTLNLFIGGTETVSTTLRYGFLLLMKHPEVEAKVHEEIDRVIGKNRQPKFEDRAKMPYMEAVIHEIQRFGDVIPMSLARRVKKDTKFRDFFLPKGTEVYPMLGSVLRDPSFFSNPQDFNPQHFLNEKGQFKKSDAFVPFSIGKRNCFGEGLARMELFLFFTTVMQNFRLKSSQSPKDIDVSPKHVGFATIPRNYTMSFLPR
Chain of UGT2B7 (P16662 24-529): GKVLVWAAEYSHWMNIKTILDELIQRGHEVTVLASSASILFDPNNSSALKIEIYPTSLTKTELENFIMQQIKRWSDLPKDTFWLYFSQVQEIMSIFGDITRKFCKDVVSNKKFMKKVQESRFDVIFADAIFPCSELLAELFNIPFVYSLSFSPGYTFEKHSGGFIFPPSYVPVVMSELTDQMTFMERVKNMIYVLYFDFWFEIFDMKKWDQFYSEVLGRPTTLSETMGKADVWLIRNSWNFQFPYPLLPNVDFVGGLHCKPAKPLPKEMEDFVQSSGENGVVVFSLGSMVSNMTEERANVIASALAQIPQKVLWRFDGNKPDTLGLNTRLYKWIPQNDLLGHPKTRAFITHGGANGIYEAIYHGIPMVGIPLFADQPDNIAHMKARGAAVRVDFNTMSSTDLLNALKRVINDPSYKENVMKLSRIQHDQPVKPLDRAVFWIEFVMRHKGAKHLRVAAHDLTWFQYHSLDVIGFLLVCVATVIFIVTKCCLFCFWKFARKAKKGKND
T1 sequence (Q9UNQ0 whole entry): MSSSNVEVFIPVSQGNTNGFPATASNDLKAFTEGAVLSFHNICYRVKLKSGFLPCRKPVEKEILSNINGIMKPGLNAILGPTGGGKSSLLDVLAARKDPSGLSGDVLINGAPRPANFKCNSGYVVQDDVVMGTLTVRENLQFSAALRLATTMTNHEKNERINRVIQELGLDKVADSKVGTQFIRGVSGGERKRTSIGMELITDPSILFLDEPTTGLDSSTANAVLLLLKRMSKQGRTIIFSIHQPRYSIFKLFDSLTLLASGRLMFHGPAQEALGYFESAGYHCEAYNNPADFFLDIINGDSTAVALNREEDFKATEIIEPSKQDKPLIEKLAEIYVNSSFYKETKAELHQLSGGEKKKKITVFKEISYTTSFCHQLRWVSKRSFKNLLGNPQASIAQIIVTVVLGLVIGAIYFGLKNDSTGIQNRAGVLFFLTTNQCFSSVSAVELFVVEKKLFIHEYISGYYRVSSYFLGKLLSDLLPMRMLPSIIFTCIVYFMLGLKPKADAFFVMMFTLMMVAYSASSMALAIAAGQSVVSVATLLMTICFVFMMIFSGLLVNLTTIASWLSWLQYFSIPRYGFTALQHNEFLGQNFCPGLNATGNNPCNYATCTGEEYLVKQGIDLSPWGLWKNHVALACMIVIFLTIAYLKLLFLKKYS
T2 sequence (Q9NPD5 whole entry): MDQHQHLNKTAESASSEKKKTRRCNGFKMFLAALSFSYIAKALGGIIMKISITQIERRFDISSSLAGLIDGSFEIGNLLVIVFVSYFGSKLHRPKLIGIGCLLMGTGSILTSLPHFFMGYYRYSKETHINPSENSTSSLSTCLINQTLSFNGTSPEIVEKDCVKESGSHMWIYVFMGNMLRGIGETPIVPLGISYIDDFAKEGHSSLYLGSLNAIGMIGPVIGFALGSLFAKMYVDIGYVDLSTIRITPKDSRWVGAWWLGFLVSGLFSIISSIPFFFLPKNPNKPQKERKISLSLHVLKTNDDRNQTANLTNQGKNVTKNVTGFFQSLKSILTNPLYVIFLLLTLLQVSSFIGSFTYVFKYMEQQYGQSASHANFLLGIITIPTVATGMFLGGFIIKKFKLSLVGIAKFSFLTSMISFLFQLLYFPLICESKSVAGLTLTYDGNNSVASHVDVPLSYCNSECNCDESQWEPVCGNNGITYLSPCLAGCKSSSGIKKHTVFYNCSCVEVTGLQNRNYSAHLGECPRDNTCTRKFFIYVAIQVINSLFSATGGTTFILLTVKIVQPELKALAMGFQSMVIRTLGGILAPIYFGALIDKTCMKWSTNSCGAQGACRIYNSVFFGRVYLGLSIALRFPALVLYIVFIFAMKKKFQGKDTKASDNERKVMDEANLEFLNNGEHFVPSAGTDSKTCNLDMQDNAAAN
Chain of UGT1A3 (P35503 29-534): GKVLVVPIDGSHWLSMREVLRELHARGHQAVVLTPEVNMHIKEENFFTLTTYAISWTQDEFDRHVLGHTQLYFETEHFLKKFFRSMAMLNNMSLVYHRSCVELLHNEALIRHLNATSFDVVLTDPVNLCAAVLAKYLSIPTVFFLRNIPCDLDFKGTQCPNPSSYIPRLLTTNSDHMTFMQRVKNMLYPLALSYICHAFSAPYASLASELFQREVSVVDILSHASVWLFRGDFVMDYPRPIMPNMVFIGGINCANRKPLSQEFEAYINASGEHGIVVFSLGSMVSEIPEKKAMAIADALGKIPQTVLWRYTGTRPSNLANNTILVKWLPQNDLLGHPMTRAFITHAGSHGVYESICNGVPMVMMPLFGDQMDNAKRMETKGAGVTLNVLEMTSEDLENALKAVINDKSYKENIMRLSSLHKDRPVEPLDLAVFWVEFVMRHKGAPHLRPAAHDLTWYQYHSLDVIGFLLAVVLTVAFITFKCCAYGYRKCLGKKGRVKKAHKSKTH
T5 sequence (O15244 whole entry): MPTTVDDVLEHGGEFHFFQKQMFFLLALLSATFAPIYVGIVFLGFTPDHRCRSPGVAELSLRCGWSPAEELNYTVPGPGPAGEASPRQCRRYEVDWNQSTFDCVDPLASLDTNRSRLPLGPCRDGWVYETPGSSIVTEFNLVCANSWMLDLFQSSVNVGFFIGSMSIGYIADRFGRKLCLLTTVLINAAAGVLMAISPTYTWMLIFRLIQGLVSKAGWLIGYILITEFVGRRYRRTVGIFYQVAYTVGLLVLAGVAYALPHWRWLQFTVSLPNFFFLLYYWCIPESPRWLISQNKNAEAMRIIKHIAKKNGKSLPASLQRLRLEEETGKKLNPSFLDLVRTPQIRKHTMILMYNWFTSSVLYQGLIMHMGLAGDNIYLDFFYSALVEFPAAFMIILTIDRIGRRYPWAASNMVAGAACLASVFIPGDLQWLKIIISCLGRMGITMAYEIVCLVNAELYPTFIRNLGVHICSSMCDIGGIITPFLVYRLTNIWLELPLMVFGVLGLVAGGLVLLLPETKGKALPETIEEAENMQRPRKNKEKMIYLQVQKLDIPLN

CCCCCn1nc(C(=O)N[C@H](C(N)=O)C(C)C)c2ccccc21 [AB-PINACA, N-[(2S)-1-amino-3-methyl-1-oxobutan-2-yl]-1-pentyl-1H-indazole-3-carboxamide] gave an IC50 [1] greater than 100 µM, an IC50 [2] greater than 100 µM and an IC50 [3] greater than 100 µM. The IC50 [4] was greater than 100 µM, the IC50 [5] was 65.2 µM and the IC50 [6, 22] was 19.3 µM. It also gave an IC50 [6, 23] of 17.4 µM, a Ki ([6]; Ki, CYP2C9, diclofenac 4'-hydroxylation, human liver microsomes, Lineweaver–Burk and Dixon plots) of 16.1 µM and an IC50 shift at 15 min ([6]; human, liver microsomes, pH 7.4, probe diclofenac) of 0.9. The “fold higher in vitro binding affinity to hCB2 compared with Δ9-THC” value [7] was 40.9 fold, the Ki ([7]; read-out: receptor binding affinity to hCB2 (Ki)) was 0.00088 µM and the IC50 [8] was greater than 250 µM. It also gave an IC50 [9] greater than 250 µM, an IC50 [10] of 11.8 µM and a Ki [10] of 8.3 µM. For the same compound, the “Mode of Inhibition, OAT3” value ([10]; estrone-3-sulfate uptake, HEK293-OAT3 cells) was “competitively inhibited; also recorded: competitive inhibition”, the IC50 [11] was greater than 250 µM and the Ki [12] was 16.9 µM. The IC50 [12, 22] was 30.1 µM, the IC50 [12, 23] was 32.5 µM and the “Mode of Inhibition, CYP2C8” value ([12]; amodiaquine N-deethylation, human liver microsomes) was “mixed mode of inhibition”. It also gave an IC50 shift at 15 min ([12]; human, liver microsomes, pH 7.4, probe amodiaquine) of 1.1, an IC50 [13] greater than 100 µM and an IC50 ([13]; read-out: IC50 Without NADPH Preincubation, CYP2A6 coumarin 7-hydroxylase, ultrapooled human liver microsomes, without NADPH preincubation) greater than 100 µM. The IC50 [14] was greater than 100 µM, the IC50 ([14]; read-out: IC50 With NADPH Preincubation, CYP2B6 bupropion hydroxylase, ultrapooled human liver microsomes, 30-min preincubation with NADPH) was greater than 100 µM and the “fold higher in vitro binding affinity to hCB1 compared with Δ9-THC” value [15] was 23.3 fold. The Ki ([15]; read-out: receptor binding affinity to hCB1 (Ki)) was 0.00287 µM, the IC50 [16] was 94 µM and the IC50 [17] was greater than 100 µM. The IC50 [18] was greater than 100 µM, the IC50 ([18]; read-out: IC50 With NADPH Preincubation, CYP1A2 phenacetin O-deethylase, ultrapooled human liver microsomes, 30-min preincubation with NADPH) was greater than 100 µM and the serum level [19] was 42 ng/mL. The IC50 [20] was 84.1 µM and the “blood (plasma) concentration in suspected impaired driving cases” value [21] was 1.8 to 127 nM.
